Reference: ChEMBL document CHEMBL5543059, “Discovery of anti-inflammatory natural flavonoids: Diverse scaffolds and promising leads for drug discovery” (Eur J Med Chem, 2023)
Converted amounts (≈) assume the structure as drawn.

Key:
Peritoneal macrophage [1] = assay: Anti-inflammatory activity against LPS-stimulated mouse peritoneal macrophage assessed as reduction in nitric oxide production; assay type: functional, cell-based
Mus musculus [2] = assay: Antiinflammatory activity against TPA-induced mouse ear edema model assessed as reduction in NO production measured after 4 hrs; assay type: functional, organism-based
J774.A1 [3] = assay: Antiinflammatory activity against mouse J774.A1 cells assessed as inhibition of LPS-stimulated TNF-alpha level by ELISA method; assay type: functional, cell-based
RAW264.7 [4] = assay: Antiinflammatory activity against mouse RAW264.7 cells assessed as inhibition of LPS-stimulated TNF-alpha level by ELISA method; assay type: functional, cell-based
Peritoneal macrophage [5] = assay: Antiinflammatory activity in mouse peritoneal macrophages assessed as fold reduction in LPS-induced TNFalpha level at 20 uM incubated for 4 hrs by ELISA method; assay type: functional
RAW264.7 [6] = assay: Anti-inflammatory activity in mouse RAW264.7 cells assessed as inhibition of LPS-induced iNOS mRNA expression; assay type: functional, cell-based
BMDM = assay: Antiinflammatory activity in LPS-stimulated mouse BMDM cells assessed as inhibition of NF-kappaB signalling pathway incubated for 3 hrs by Western blot analysis; assay type: functional, cell-based
J774.A1 [7] = assay: Anti-inflammatory activity in mouse J774.A1 cells assessed as suppression of LPS-induced IL-6 production by ELISA analysis; assay type: functional, cell-based
BV-2 [8] = assay: Anti-inflammatory activity in mouse BV-2 cells assessed as inhibition of LPS-induced NO production preincubated with compound for 1 hrs followed by LPS stimulation and measured after 24 hrs by Griess reagent based assay; assay type: functional, cell-based
BV-2 [9] = assay: Antineuroinflammatory activity in LPS-induced mouse BV-2 cells assessed as inhibition of NO production pre-incubated for 2 hr followed by LPS-stimulation measured for 24 hrs by Griess reagent based analysis; assay type: functional, cell-based
RAW264.7 [10] = assay: Anti-inflammatory activity in mouse RAW264.7 cells assessed as inhibition of LPS-induced nitric oxide production preincubated for 2 hrs followed by LPS stimulation and measured after 24 hrs by Griess assay; assay type: functional, cell-based
RAW264.7 [11] = assay: Anti-inflammatory activity in LPS-stimulated mouse RAW264.7 cells assessed as inhibition of NO production incubated for 24 hrs by Griess reagent based assay; assay type: functional, cell-based; settings: RAW264.7, 24 h
[12] = Antioxidant activity assessed as DPPH radical scavenging activity measured for 30 mins; assay type: functional
[13] = Antioxidant activity assessed as ABTS radical scavenging activity incubated for 40 mins; assay type: functional
Neutrophil [14] = assay: Inhibition of fMLF/CB-induced human Neutrophil activation assessed as reduction in superoxide anion at 10 uM relative to control; assay type: functional; design: scale not given: the % may be the effect or the level left
BV-2 [15] = assay: Antiinflammatory activity in mouse BV-2 cells assessed as reduction in LPS-induced NO production pre-treated with compound for 1 hr followed by LPS-stimulation and measured for 23 hrs by Griess reagent based analysis; assay type: functional, cell-based
Mus musculus [16] = assay: Antiinflammatory activity against TPA-induced CD-1 mouse ear edema model assessed as reduction in ear edema at 1 uM relative to control; assay type: functional; design: scale not given: the % may be the effect or the level left
Neutrophil [17] = assay: Inhibition of fMLF/CB-induced human Neutrophil activation assessed as reduction in superoxide anion generation pre-incubated for 2 mins prior to CB induction for 3 mins followed by fMLF addition by spectrophotometric analysis; assay type: functional, cell-based
Neutrophil [18] = assay: Inhibition of fMLF/CB-induced human Neutrophil activation assessed as reduction in elastase release using MeO-Suc-Ala-Ala-Pro-Val-pnitroanilide as substrate pre-incubated for 2 mins followed by fMLF/CB-stimulation and measured for 5 mins; assay type: functional, cell-based
Neutrophil [19] = assay: Inhibition of fMLF/CB-induced human Neutrophil activation assessed as reduction in elastase release; assay type: functional, cell-based
Neutrophil [20] = assay: Inhibition of fMLF/CB-induced human Neutrophil activation assessed as reduction in superoxide anion; assay type: functional, cell-based
[21] = Inhibition of TNF-alpha induced NF-kappaB activation in HEK293-A cells incubated for 15 mins by Western blot analysis; assay type: cell-based; settings: Homo sapiens, HEK293, 0.25 h
BV-2 [22] = assay: Anti-inflammatory activity in mouse BV-2 cells assessed as reduction in LPS-induced NO production; assay type: functional, cell-based
THP-1 = assay: Anti-inflammatory activity in human THP-1 cells assessed as inhibition of LPS-stimulated NO production by ELISA analysis; assay type: functional, cell-based
RAW264.7 [23] = assay: Anti-inflammatory activity in mouse RAW264.7 cells assessed as reduction in LPS-induced NO production by ELISA analysis; assay type: functional, cell-based
BV-2 [24] = assay: Anti-inflammatory activity in mouse BV-2 cells assessed as reduction in LPS-induced NO production pretreated for 1 hr followed by LPS-stimulation and measured after 18 hrs by 2,3-diaminonaphthalene reagent based fluorescence analysis; assay type: functional, cell-based
HEK293 = assay: Anti-inflammatory activity against TNFalpha-induced HEK293 cells assessed as inhibition of NF-kappaB activity pre-indubated for 1 hr followed by TNFalpha treatment measured for 5 hrs by luciferase based assay; assay type: functional, cell-based; settings: Homo sapiens
RAW264.7 [25] = assay: Antiinflammatory activity against mouse RAW264.7 cells assessed as reduction of LPS-induced NO production; assay type: functional, cell-based
[26] = biological target: T1, Polyunsaturated fatty acid 5-lipoxygenase (Homo sapiens) (UniProt P09917); assay: Inhibition of 5-Lipoxygenase (unknown origin) at 30 uM relative to control
T1 sequence (whole entry): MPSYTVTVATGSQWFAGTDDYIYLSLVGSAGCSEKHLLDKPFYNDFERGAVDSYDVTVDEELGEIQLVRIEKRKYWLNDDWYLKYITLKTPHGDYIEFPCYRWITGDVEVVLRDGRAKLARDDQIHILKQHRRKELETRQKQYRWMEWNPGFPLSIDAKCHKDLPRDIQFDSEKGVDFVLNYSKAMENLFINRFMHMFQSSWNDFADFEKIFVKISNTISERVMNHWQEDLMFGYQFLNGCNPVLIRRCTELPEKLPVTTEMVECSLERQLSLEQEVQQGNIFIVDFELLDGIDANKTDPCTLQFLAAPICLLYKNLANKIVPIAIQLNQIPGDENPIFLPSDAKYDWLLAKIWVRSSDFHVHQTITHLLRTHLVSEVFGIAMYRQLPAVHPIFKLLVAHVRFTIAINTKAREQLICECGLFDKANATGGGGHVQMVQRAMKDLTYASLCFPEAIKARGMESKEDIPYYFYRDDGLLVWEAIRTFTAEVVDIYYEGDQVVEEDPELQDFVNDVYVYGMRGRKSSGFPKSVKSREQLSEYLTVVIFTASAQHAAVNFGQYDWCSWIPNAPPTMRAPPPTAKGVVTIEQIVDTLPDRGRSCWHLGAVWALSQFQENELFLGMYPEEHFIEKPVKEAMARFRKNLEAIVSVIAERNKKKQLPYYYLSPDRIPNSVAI

RAW264.7 [27] = assay: Anti-inflammatory activity in mouse RAW264.7 cells assessed as inhibition of LPS-induced NO production at 20 uM by Griess reagent based analysis relative to control; assay type: functional; design: scale not given: the % may be the effect or the level left
RAW264.7 [28] = assay: Antiinflammatory activity in mouse RAW264.7 cells assessed as suppression of LPS-induced iNOS expression preincubated with compound for 1 hrs followed by LPS-stimulation and measured after 24 hrs by Western blot analysis; assay type: functional, cell-based
Mus musculus [29] = assay: Anti-inflammatory activity in mouse model of xylene-induced auricle edema assessed as inhibition of ear swelling at 50 mg/kg, IG pre-treated for 1 hr followed by xylene addition and measured after 1 hr relative to control; assay type: functional; design: scale not given: the % may be the effect or the level left

## COc1ccc(-c2coc3cc(O)c(OC)c(O)c3c2=O)cc1 [IRISOLIDONE]
Peritoneal macrophage [1]
  IC50: 23.6 µM

## CC(C)=CCC/C(C)=C/Cc1c(O)cc2oc(-c3ccc(O)cc3)cc(=O)c2c1O
Mus musculus [2]
  IC50: 4.1 µg/mL (≈ 10.1 µM)

## COc1cc(O)c2c(c1CC=C(C)C)OC(c1ccccc1)CC2=O (stereo not drawn)
J774.A1 [3]
  IC50: 35.5 µM
RAW264.7 [4]
  IC50: 41.2 µM

## CC(C)=CCc1c2c(c3occ(-c4ccc(O)cc4)c(=O)c3c1O)C=CC(C)(C)O2 [OSAJIN]
Peritoneal macrophage [5]
  fold change (FC): 1.8
RAW264.7 [6]
  IC50: 7.2 µg/mL (≈ 17.8 µM)
BMDM
  IC50: 12 µg/mL (≈ 29.7 µM)

## COc1cc(O)c2c(=O)c(OC)c(-c3ccc(OC)c(O)c3)oc2c1 [AYANIN]
J774.A1 [7]
  IC50: 17.8 µM
BV-2 [8]
  IC50: 25.1 µM

## CC(C)(O)[C@@H]1Cc2cc(/C=C/C(=O)c3ccc4c(c3O)C[C@H](C(C)(C)O)O4)ccc2O1
BV-2 [9]
  IC50: 12.4 µM

## CC1(C)C=Cc2c(O)ccc(-c3coc4cc(O)cc(O)c4c3=O)c2O1
RAW264.7 [10]
  IC50: 0.8 µM

## COc1c(O)ccc2c(=O)cc(-c3ccc(O)c(O)c3)oc12
RAW264.7 [11]
  IC50: 27.7 µM
[12]
  IC50: 5 µM
[13]
  IC50: 7.9 µM

## CC1(C)C=Cc2cc(-c3coc4cc(O)cc(O)c4c3=O)cc(O)c2O1
RAW264.7 [10]
  IC50: 20 µM

## CC(C)=CCc1c2c(c3occ(-c4ccc(O)c(O)c4)c(=O)c3c1O)C=CC(C)(C)O2 [POMIFERIN]
Peritoneal macrophage [5]
  fold change (FC): 1.5
RAW264.7 [6]
  IC50: 6.4 µg/mL (≈ 15.2 µM)
BMDM
  IC50: 13 µg/mL (≈ 30.9 µM)

## COc1cc(O)c2c(=O)c(-c3ccc(O)c(OC)c3)coc2c1
Neutrophil [14]
  Activity: 49%

## CC(=O)O[C@@H]1c2c(ccc3c(=O)c(O)c(-c4ccccc4)oc23)OC(C)(C)[C@@H]1OC(C)=O
BV-2 [15]
  IC50: 11.3 µM
Mus musculus [16]
  Activity: 12.28%

## O=C1O[C@H]([C@@H](O)CO)C(O)=C1O [ASCORBIC ACID]
[12]
  IC50: 2.1 µM
[13]
  IC50: 3.3 µM

## COc1cc(O)c2c(=O)cc(-c3ccc(O)c(OC)c3)oc2c1 [VELUTIN]
Neutrophil [17]
  IC50: ≤ 12.5 µM
Neutrophil [18]
  IC50: ≤ 15.2 µM

## O=c1cc(N2CCOCC2)oc2c(-c3ccccc3)cccc12 [LY-294002]
Neutrophil [19]
  IC50: 3.2 µM
Neutrophil [20]
  IC50: 1.1 µM
Neutrophil [14]
  Activity: 96.5%

## COc1c(O)cc2oc(-c3ccccc3)cc(=O)c2c1O [OROXYLIN A]
[21]
  IC50: 3.9 µM

## CC(C)=CCc1c(O)ccc(-c2coc3c(CC=C(C)C)c(O)cc(O)c3c2=O)c1O
RAW264.7 [10]
  IC50: 0.25 µM

## CC(C)(O)c1ccccc1CC[C@@H](SCC1(CC(=O)O)CC1)c1cccc(/C=C/c2ccc3ccc(Cl)cc3n2)c1 [MONTELUKAST]
J774.A1 [7]
  IC50: 8.7 µM

## COc1ccc2c(c1)c(CC(=O)O)c(C)n2C(=O)c1ccc(Cl)cc1 [INDOMETHACIN]
RAW264.7 [11]
  IC50: 8.5 µM
BV-2 [22]
  IC50: 15.2 µM
THP-1
  IC50: 19.4 µM
RAW264.7 [23]
  IC50: 17.6 µM
Peritoneal macrophage [1]
  IC50: 148 µM
BV-2 [24]
  IC50: 55.4 µM

## COc1c(O)cc(O)c2c(=O)cc(-c3ccccc3)oc12 [WOGONIN]
HEK293
  IC50: 28.1 µM

## CC(C)=CCc1cc([C@@H]2CCc3ccc(O)cc3O2)ccc1O
RAW264.7 [25]
  IC50: 28.4 µM

## COc1cc2oc(-c3ccc(O)c(O)c3)cc(=O)c2c(O)c1OC [CIRSILIOL]
[26]
  inhibition: 48.5%
RAW264.7 [27]
  Activity: 54%

## COc1cc(-c2cc(=O)c3c(O)cc(O)cc3o2)ccc1O [CHRYSOERIOL]
RAW264.7 [28]
  IC50: 3.1 µM

## CC(C)=CCc1c([C@@H]2CCc3ccc(O)cc3O2)cc2c(c1O)OC(C)(C)C=C2 [KAZINOL B]
RAW264.7 [25]
  IC50: 29.3 µM

## COc1cc(-c2cc(=O)c3c(O)c(OC)c(O)cc3o2)c(O)cc1O
[26]
  inhibition: 46.9%
RAW264.7 [27]
  Activity: 54%

## COc1ccc(-c2cc(=O)c3c(OC)c(OC)c(OC)cc3o2)cc1OC [SINENSETIN]
Mus musculus [29]
  Activity: 58%

## CC1=C(O)C(=O)C=C2C1=CC=C1[C@@]2(C)CC[C@@]2(C)[C@@H]3C[C@](C)(C(=O)O)CC[C@]3(C)CC[C@]12C [CELASTROL]
RAW264.7 [28]
  IC50: 1 µM

## CC(C)(O)CCc1c(O)ccc(C(=O)/C=C/c2ccc3c(c2)C[C@@H](C(C)(C)O)O3)c1O
BV-2 [9]
  IC50: 3.25 µM

## O=C(O)Cc1ccccc1Nc1c(Cl)cccc1Cl [DICLOFENAC]
Peritoneal macrophage [5]
  fold change (FC): 1.8

## COc1ccc(-c2cc(=O)c3c(OC)c(OC)c(OC)cc3o2)cc1
Mus musculus [29]
  Activity: 42.8%

## C=C(C)[C@H](O)CC/C(C)=C/Cc1c(O)cc2oc(-c3ccc(O)cc3)cc(=O)c2c1O
Mus musculus [2]
  IC50: 3.5 µg/mL (≈ 8.28 µM)

## C=C1C(=O)O[C@@H]2C3O[C@]3(C)CC/C=C(\C)CC[C@@H]12 (stereo partly drawn)
[21]
  IC50: 1.5 µM
HEK293
  IC50: 1.5 µM
